Laboratory results reported in patent US10370343B2, “[6,6] Fused bicyclic HDAC8 inhibitors” (FORMA Therapeutics, Inc., priority 2015, dated 2019).

Assays:
[1] = biological target: T1, Full length human recombinant HDAC8 protein (Homo sapiens, UniProt Q9BY41); test: In vitro histone deacetylase assay: enzymatic HDAC8 electrophoretic mobility shift assay; format: biochemical; details: electrophoretic mobility shift assay; enzyme 1 nM; 2 μM fluorescently labeled peptide substrate RHKK(Ac)-NH2; 25° C.; 12 concentrations; read-out: HDAC8 IC50
T1 construct: Full length human recombinant HDAC8 protein was expressed in baculoviral system; made in house
T1 sequence (Q9BY41 1-377): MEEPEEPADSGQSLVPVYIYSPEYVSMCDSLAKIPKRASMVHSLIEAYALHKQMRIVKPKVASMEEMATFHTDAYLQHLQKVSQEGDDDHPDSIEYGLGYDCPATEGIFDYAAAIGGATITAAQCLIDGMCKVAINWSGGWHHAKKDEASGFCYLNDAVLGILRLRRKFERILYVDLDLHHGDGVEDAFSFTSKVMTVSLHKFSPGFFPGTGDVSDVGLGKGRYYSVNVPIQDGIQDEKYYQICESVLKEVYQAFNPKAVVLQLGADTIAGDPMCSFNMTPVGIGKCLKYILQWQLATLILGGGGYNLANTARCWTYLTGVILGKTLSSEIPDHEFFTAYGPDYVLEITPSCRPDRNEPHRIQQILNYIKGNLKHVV

[2] = biological target: T2, Recombinant N-terminal GST tag full-length human HDAC8 (Homo sapiens, UniProt Q9BY41); test: HDAC8 probe binding assay, time resolved fluorescence (TRF) format; details: compounds grouped by IC50 range (Table 2)
T2 construct: Recombinant N-terminal GST tag full-length human HDAC8; purchased SignalChem H90-30G-1000; host or cells: baculovirus in Sf9 insect cells
T2 sequence (Q9BY41 1-377): T1 sequence (Q9BY41 1-377)
How it was run: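 IC50 values come from four-parameter logistic fits of percent inhibition, scaled between DMSO (high) and no-enzyme (low) controls. Time-resolved fluorescence (ex 340, em 485/535 nm) was read after 16 h at room temperature. Enzyme was Sf9-expressed full-length human HDAC8 with an N-terminal GST tag, in a probe-binding format.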

Compound | IC50 [1] | IC50 [2]
CC1COc2ccc(C(=O)NO)cc2N1Cc1ccccc1 (centres unmarked) [Compound I-154, 4-benzyl-N-hydroxy-3-methyl-3,4-dihydro-2H-benzo[b][1,4]oxazine-6-carboxamide] | 25 to 100 nM | 25 to 100 nM
O=C(NO)c1ccc2c(c1)N(Cc1ccccc1F)CCO2 [Compound I-27, 4-(2-fluorobenzyl)-N-hydroxy-3,4-dihydro-2H-benzo[b][1,4]oxazine-6-carboxamide] | < 25 nM | 25 to 100 nM
O=C(NO)c1ccc2c(c1)N(CCOCC1CC1)C(=O)CO2 [Compound I-50, 4-(2-(cyclopropylmethoxy)ethyl)-N-hydroxy-3-oxo-3,4-dihydro-2H-benzo[b][1,4]oxazine-6-carboxamide] | 25 to 100 nM | 25 to 100 nM
COc1ccc(CN2C(=O)C(C)Oc3ccc(C(=O)NO)cc32)cc1 (centres unmarked) [Compound I-151, N-hydroxy-4-(4-methoxybenzyl)-2-methyl-3-oxo-3,4-dihydro-2H-benzo[b][1,4]oxazine-6-carboxamide] | < 25 nM | ≤ 25 nM
CS(=O)(=O)c1ccc(CN2C(=O)COc3ccc(C(=O)NO)cc32)cc1 [Compound I-142, N-hydroxy-4-(4-(methylsulfonyl)benzyl)-3-oxo-3,4-dihydro-2H-benzo[b][1,4]oxazine-6-carboxamide] | < 25 nM | ≤ 25 nM
O=C(NO)c1ccc2c(c1)N(CCOCC(F)(F)F)C(=O)CO2 [Compound I-53, N-hydroxy-3-oxo-4-(2-(2,2,2-trifluoroethoxy)ethyl)-3,4-dihydro-2H-benzo[b][1,4]oxazine-6-carboxamide] | 25 to 100 nM | 25 to 100 nM
O=C(NO)c1ccc2c(c1)N(Cc1csc(C3CC3)n1)CCO2 [Compound I-20, 4-((2-cyclopropylthiazol-4-yl)methyl)-N-hydroxy-3,4-dihydro-2H-benzo[b][1,4]oxazine-6-carboxamide] | 100 to 1000 nM | > 1000 nM
O=C(NO)c1ccc2c(c1)N(CC1CCC1)C(=O)CO2 [Compound I-31, 4-(cyclobutylmethyl)-N-hydroxy-3-oxo-3,4-dihydro-2H-benzo[b][1,4]oxazine-6-carboxamide] | 25 to 100 nM | 25 to 100 nM
O=C(NO)c1ccc2c(c1)N(Cc1ccc3nonc3c1)C(=O)CO2 [Compound I-62, 4-(benzo[c][1,2,5]oxadiazol-5-ylmethyl)-N-hydroxy-3-oxo-3,4-dihydro-2H-benzo[b][1,4]oxazine-6-carboxamide] | < 25 nM | 25 to 100 nM
COc1cccc(CN2C(=O)COc3ccc(C(=O)NO)cc32)c1 [Compound I-60, N-hydroxy-4-(3-methoxybenzyl)-3-oxo-3,4-dihydro-2H-benzo[b][1,4]oxazine-6-carboxamide] | 25 to 100 nM | 25 to 100 nM
CC(c1ccc(S(C)(=O)=O)cc1)N1CCOc2ccc(C(=O)NO)cc21 (centres unmarked) [Compound I-135, N-hydroxy-4-(1-(4-(methylsulfonyl)phenyl)ethyl)-3,4-dihydro-2H-benzo[b][1,4]oxazine-6-carboxamide] | 25 to 100 nM | 25 to 100 nM
CC1Oc2ccc(C(=O)NO)cc2N(Cc2ccc(S(C)(=O)=O)cc2)C1=O (centres unmarked) [Compound I-152, N-hydroxy-2-methyl-4-(4-(methylsulfonyl)benzyl)-3-oxo-3,4-dihydro-2H-benzo[b][1,4]oxazine-6-carboxamide] | < 25 nM | ≤ 25 nM

Further lines, results first:

IC50 [1] | IC50 [2] | Compound
25 to 100 nM | 25 to 100 nM | Cn1c(CN2C(=O)COc3ccc(C(=O)NO)cc32)nc2ccc(Cl)cc21 [Compound I-278, 4-((6-chloro-1-methyl-1H-benzo[d]imidazol-2-yl)methyl)-N-hydroxy-3-oxo-3,4-dihydro-2H-benzo[b][1,4]oxazine-6-carboxamide]
25 to 100 nM | 25 to 100 nM | O=C(NO)c1ccc2c(c1)N(Cc1nc3cccnc3n1Cc1ccccc1)C(=O)CO2 [Compound I-284, 4-((3-benzyl-3H-imidazo[4,5-b]pyridin-2-yl)methyl)-N-hydroxy-3-oxo-3,4-dihydro-2H-benzo[b][1,4]oxazine-6-carboxamide]
< 25 nM | ≤ 25 nM | COc1ccc(CN2C(=O)COc3ccc(C(=O)NO)cc32)cc1C(F)(F)F [Compound I-246, N-hydroxy-4-(4-methoxy-3-(trifluoromethyl)benzyl)-3-oxo-3,4-dihydro-2H-benzo[b][1,4]oxazine-6-carboxamide]
25 to 100 nM | 25 to 100 nM | O=C(NO)c1ccc2c(c1)N(Cc1cn3ccccc3n1)C(=O)CO2 [Compound I-216, N-hydroxy-4-(imidazo[1,2-a]pyridin-2-ylmethyl)-3-oxo-3,4-dihydro-2H-benzo[b][1,4]oxazine-6-carboxamide]
25 to 100 nM | 25 to 100 nM | Cc1ccc2nc(CN3C(=O)C(C)(C)Oc4ccc(C(=O)NO)cc43)oc2c1 [Compound I-292, N-hydroxy-2,2-dimethyl-4-((6-methylbenzo[d]oxazol-2-yl)methyl)-3-oxo-3,4-dihydro-2H-benzo[b][1,4]oxazine-6-carboxamide]
< 25 nM | ≤ 25 nM | O=C(NO)c1ccc2c(c1)N(Cc1cc(Cl)ccc1Cl)C(=O)CO2 [Compound I-252, 4-(2,5-dichlorobenzyl)-N-hydroxy-3-oxo-3,4-dihydro-2H-benzo[b][1,4]oxazine-6-carboxamide]
25 to 100 nM | 25 to 100 nM | CCOc1c(F)cc(CN2C(=O)COc3ccc(C(=O)NO)cc32)cc1F [Compound I-250, 4-(4-ethoxy-3,5-difluorobenzyl)-N-hydroxy-3-oxo-3,4-dihydro-2H-benzo[b][1,4]oxazine-6-carboxamide]
25 to 100 nM | 25 to 100 nM | O=C(NO)c1ccc2c(c1)N(Cc1cc(F)ccc1C(F)(F)F)C(=O)CO2 [Compound I-268, 4-(5-fluoro-2-(trifluoromethyl)benzyl)-N-hydroxy-3-oxo-3,4-dihydro-2H-benzo[b][1,4]oxazine-6-carboxamide]
25 to 100 nM | 25 to 100 nM | O=C(NO)c1ccc2c(c1)N(Cc1c(Cl)cccc1Cl)C(=O)CO2 [Compound I-253, 4-(2,6-dichlorobenzyl)-N-hydroxy-3-oxo-3,4-dihydro-2H-benzo[b][1,4]oxazine-6-carboxamide]
< 25 nM | ≤ 25 nM | CC1(C)Oc2ccc(C(=O)NO)cc2N(Cc2ccc(Cl)cc2F)C1=O [Compound I-161, 4-(4-chloro-2-fluorobenzyl)-N-hydroxy-2,2-dimethyl-3-oxo-3,4-dihydro-2H-benzo[b][1,4]oxazine-6-carboxamide]
25 to 100 nM | 25 to 100 nM | O=C(NO)c1ccc2c(c1)N(Cc1ccc(F)c(C(F)(F)F)c1)C(=O)CO2 [Compound I-267, 4-(4-fluoro-3-(trifluoromethyl)benzyl)-N-hydroxy-3-oxo-3,4-dihydro-2H-benzo[b][1,4]oxazine-6-carboxamide]
< 25 nM | ≤ 25 nM | O=C(NO)c1ccc2c(c1)N(Cc1cnn(-c3ccccc3)c1)C(=O)CO2 [Compound I-223, N-hydroxy-3-oxo-4-((1-phenyl-1H-pyrazol-4-yl)methyl)-3,4-dihydro-2H-benzo[b][1,4]oxazine-6-carboxamide]
< 25 nM | ≤ 25 nM | COc1ccc(CN2C(=O)COc3ccc(C(=O)NO)cc32)cc1Cl [Compound I-243, 4-(3-chloro-4-methoxybenzyl)-N-hydroxy-3-oxo-3,4-dihydro-2H-benzo[b][1,4]oxazine-6-carboxamide]
